# Data published in ChEMBL document CHEMBL1134213, “Synthesis and SAR of benzamidine factor Xa inhibitors containing a vicinally-substituted heterocyclic core” (Bioorg Med Chem Lett, 2001).
# Legend:
# Coagulation factor X [1] = biological target: Coagulation factor X (Homo sapiens, UniProt P00742); test: Binding affinity towards human Serine protease FXa
# Prothrombin = Prothrombin (Homo sapiens, UniProt P00734); test: Binding affinity towards human thrombin
# Trypsin = Trypsin (Homo sapiens, UniProt P07477+P07478+P35030); test: Binding affinity towards human trypsin; format: protein assay
# Oryctolagus cuniculus = species: Oryctolagus cuniculus; test: Antithrombotic efficacy was determined in a rabbit (A-V) shunt model; format: functional
# Coagulation factor X [2] = biological target: T1, Coagulation factor X (Oryctolagus cuniculus, UniProt O19045); test: Binding affinity towards Rabbit Coagulation factor X in a rabbit arterio-venous (A-V) shunt model
# T1 sequence (O19045 whole entry): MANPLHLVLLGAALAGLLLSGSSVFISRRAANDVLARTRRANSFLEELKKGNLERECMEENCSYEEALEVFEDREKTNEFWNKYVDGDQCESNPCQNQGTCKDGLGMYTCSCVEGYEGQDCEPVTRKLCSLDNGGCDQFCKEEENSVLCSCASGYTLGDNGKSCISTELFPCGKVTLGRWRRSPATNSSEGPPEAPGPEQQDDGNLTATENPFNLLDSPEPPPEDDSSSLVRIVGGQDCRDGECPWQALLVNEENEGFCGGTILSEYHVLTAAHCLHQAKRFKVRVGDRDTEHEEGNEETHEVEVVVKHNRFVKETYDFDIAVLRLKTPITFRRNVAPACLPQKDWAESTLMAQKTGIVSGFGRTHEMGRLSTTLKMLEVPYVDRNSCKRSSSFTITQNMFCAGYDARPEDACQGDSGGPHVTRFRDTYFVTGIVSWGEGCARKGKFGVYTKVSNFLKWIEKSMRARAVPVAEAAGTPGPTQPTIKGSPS
# Chain of Coagulation factor X (Homo sapiens, UniProt P00742) (P00742 41-179 limits assumed): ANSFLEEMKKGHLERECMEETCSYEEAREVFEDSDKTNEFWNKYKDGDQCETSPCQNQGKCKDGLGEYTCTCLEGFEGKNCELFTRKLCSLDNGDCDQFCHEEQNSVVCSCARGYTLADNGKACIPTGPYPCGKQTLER
# Chain of Coagulation factor X (Homo sapiens, UniProt P00742) (P00742 235-488 limits assumed): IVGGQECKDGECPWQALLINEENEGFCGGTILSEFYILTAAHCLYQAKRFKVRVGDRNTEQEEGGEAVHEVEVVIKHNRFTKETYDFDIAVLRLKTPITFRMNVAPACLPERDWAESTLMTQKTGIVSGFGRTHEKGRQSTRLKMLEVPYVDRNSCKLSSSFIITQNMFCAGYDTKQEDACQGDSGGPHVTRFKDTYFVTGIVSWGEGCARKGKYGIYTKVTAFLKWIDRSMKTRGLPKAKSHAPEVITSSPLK
Ki (Coagulation factor X [1]) [nM],Ki (Prothrombin) [nM],Ki (Trypsin) [nM],Ki (Coagulation factor X [2]) [nM],Structure (SMILES),ID50 (Oryctolagus cuniculus) [µM/h/kg]
0.037,300,6.4,–,N=C(N)c1cccc(-n2nnnc2C(=O)Nc2ccc(-c3ccccc3S(N)(=O)=O)cc2)c1.O=C(O)C(F)(F)F,0.13
2.5,3300,261,–,N=C(N)c1cccc(-c2ocnc2C(=O)Nc2ccc(-c3ccccc3S(N)(=O)=O)cc2)c1.O=C(O)C(F)(F)F,0.54
1.1,3200,58,–,N=C(N)c1cccc(-n2cncc2C(=O)Nc2ccc(-c3ccccc3S(N)(=O)=O)cc2)c1.O=C(O)C(F)(F)F,–
–,–,15,–,N=C(N)c1cccc(-n2nccc2C(=O)Nc2ccc(-c3ccccc3S(N)(=O)=O)cc2)c1,–
6,> 21000,1100,–,Cc1nc(C(=O)Nc2ccc(-c3ccccc3S(N)(=O)=O)cc2)c(-c2cccc(C(=N)N)c2)[nH]1.O=C(O)C(F)(F)F,–
2.3,6000,390,–,N=C(N)c1cccc(-c2[nH]c(O)nc2C(=O)Nc2ccc(-c3ccccc3S(N)(=O)=O)cc2)c1.O=C(O)C(F)(F)F,–
–,–,56,–,N=C(N)c1cccc(-n2cccc2C(=O)Nc2ccc(-c3ccccc3S(N)(=O)=O)cc2)c1,–
0.4,3600,190,–,Cc1nc(-c2cccc(C(=N)N)c2)c(C(=O)Nc2ccc(-c3ccccc3S(N)(=O)=O)cc2)o1.O=C(O)C(F)(F)F,–
0.33,800,26,–,N=C(N)c1cccc(-n2ccnc2C(=O)Nc2ccc(-c3ccccc3S(N)(=O)=O)cc2)c1.O=C(O)C(F)(F)F,–
0.2,2640,220,–,Cn1cc(C(=O)Nc2ccc(-c3ccccc3S(N)(=O)=O)cc2)c(-c2cccc(C(=N)N)c2)n1.O=C(O)C(F)(F)F,–
–,–,–,–,Cc1cc(C(=O)Nc2ccc(-c3ccccc3S(N)(=O)=O)cc2)n(-c2cccc(C(=N)N)c2)n1.O=C(O)C(F)(F)F,0.023
0.06,1250,60,0.08,Cc1nc(-c2cccc(C(=N)N)c2)c(C(=O)Nc2ccc(-c3ccccc3S(N)(=O)=O)cc2)s1.O=C(O)C(F)(F)F,0.5
0.023,300,3.4,–,N=C(N)c1cccc(-n2nncc2C(=O)Nc2ccc(-c3ccccc3S(N)(=O)=O)cc2)c1.O=C(O)C(F)(F)F,–
1,15400,260,–,N=C(N)c1cccc(-c2ncccc2C(=O)Nc2ccc(-c3ccccc3S(N)(=O)=O)cc2)c1.O=C(O)C(F)(F)F,–
0.3,600,27,–,Cc1cn(-c2cccc(C(=N)N)c2)c(C(=O)Nc2ccc(-c3ccccc3S(N)(=O)=O)cc2)n1.O=C(O)C(F)(F)F,–
–,–,21,–,N=C(N)c1cccc(-c2nocc2C(=O)Nc2ccc(-c3ccccc3S(N)(=O)=O)cc2)c1.O=C(O)C(F)(F)F,0.31
8.2,> 6300,780,–,N=C(N)c1cccc(-c2ccccc2C(=O)Nc2ccc(-c3ccccc3S(N)(=O)=O)cc2)c1.O=C(O)C(F)(F)F,–
0.82,> 6300,97,–,N=C(N)c1cccc(-c2ncsc2C(=O)Nc2ccc(-c3ccccc3S(N)(=O)=O)cc2)c1.O=C(O)C(F)(F)F,–
